Source: patent US10583130B2, “Pharmaceutical formulations compromising nitrocatechol derivatives and methods of making thereof” (BIAL—Portela & Cᵃ, S.A., priority 2009, dated 2020)

Columns and labels:
[1] = Bulk / apparent density (m/V0); format: physicochemical; conditions: prior to granulation and/or formulation
Text: It is within the ability of one of skill in the art to determine the bulk density of a compound or composition using methods generally accepted in the art. However, suitable methods include, for example, the European Pharmacopeia edition 6, Test 2.9.15 “apparent volume,” pages 285-286, EDQM, 2007, and USP 31, vol. 1 test <616> page 231-232, The United States Pharmacopeia Convention, 2008. An example of a suitable method is described below:
Apparatus: • settling apparatus capable of producing in 1 minute 250±15 taps from a height of 3±0.2 mm. The support for the graduated cylinder with its holder, has a mass of 450±5 g • a 250 ml graduated cylinder (2 ml intervals) with a mass of 220±40 g
Method: Into a dry cylinder, introduce without compacting, 100.0 g (m g) of the test substance. Secure the cylinder in its holder. Read the unsettled apparent volume (V0) to the nearest milliliter. Carry out 10, 500 and 1250 taps and read the corresponding volumes V10, V500, V1250, to the nearest milliliter. If the difference between V500 and V1250 is greater than 2 ml, carry out another 1250 taps.
Alternatively, if it is not possible to select 100.0 g, select a test sample of any mass but with a volume between 50 ml and 250 ml, measure its apparent volume, V0 as described above, and weigh the sample and specify the mass in the expression of results. Bulk/apparent density may then be determined in g/ml using the following formula: m/V0 where m is the mass in grams and V0 the unsettled apparent volume.
(§1) The granules and final compositions were evaluated for bulk and tapped density using the methods described above. Flowability was also accessed by testing the flow rate through an orifice described in USP 31, vol. 1, test <1174>, The United States Pharmacopeia Convention, 2008. The flowability was measured as the mass per time flowing through the 10 mm diameter opening of a glass funnel.

[2] = Flowability: flow rate through 10 mm orifice of a glass funnel (USP <1174>); format: physicochemical; conditions: API before granulation
Text: It is within the ability of one of skill in the art to determine the flowability of a compound or composition using methods generally accepted in the art. However, suitable methods include but are not limited to, testing the flow rate through an orifice described in USP 31, vol. 1, test <1174>, The United States Pharmacopeia Convention, 2008, in which case, the flowability may be measured as the mass per time flowing through the 10 mm diameter opening of a glass funnel.
as §1

Structure (SMILES)	bulk density of the API alone [1]	bulk density of the API alone ([1]; listed as 2,5-dichloro-3-(5-(3,4-dihydroxy-5-nitrophenyl)-1,2,4-oxadiazol-3-yl)-4,6-dimeth)	flow of the API alone [2]
Cc1nc(Cl)c(-c2noc(-c3cc(O)c(O)c([N+](=O)[O-])c3)n2)c(C)c1Cl [5-[3-(2,5-dichloro-4,6-dimethylpyridin-3-yl)-[1,2,4]oxadiazol-5-yl]-3-nitrobenzene-1,2-diol]	around 0.2 g/ml		
Cc1c(Cl)c(C)[n+]([O-])c(Cl)c1-c1noc(-c2cc(O)c(O)c([N+](=O)[O-])c2)n1 [API, 2,5-dichloro-3-(5-(3,4-dihydroxy-5-nitrophenyl)-1,2,4-oxadiazol-3-yl)-4,6-dimethylpyridine 1-oxide]	< 0.1 g/mL	less than 0.1 g/ml	no flow
